Test results published in ChEMBL document CHEMBL1201862, “PubChem BioAssay data set” (2004).
Where “and” joins values, the source holds several entries; their conditions need not be identical. Equal entries are not always repeated.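 Interpolation was linear, between the two tested concentrations surrounding the appropriate level; five concentrations were tested over 48 hours in 96-well plates. The concentration for 50% growth inhibition is given as GI50.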 Calls of active or inactive are those of the source. No stated cut-off is given here; in the data, active = GI50 up to about 1.1 µM and inactive = higher. Non-standard residues stand in square brackets, D forms with d. Residues, ends and D or L forms follow the SMILES beside them. ξ: configuration not given here. *: point of attachment. dThr(3ξ) = CC(O)[C@@H](N)C(=O)O; dNMeL = CN[C@H](CC(C)C)C(=O)O; OBn = c1ccc(CO*)cc1; ξLac = CC(O)C(=O)O

Columns and labels:
Assay in all cases: growth of human tumour cells (NCI), 48 h
UACC-62 = tested on: UACC-62
SNB-19 = tested on: SNB-19
OVCAR-8 = tested on: OVCAR-8
HCC 2998 = tested on: HCC 2998
KM-20L2 = tested on: KM-20L2
HL-60 = tested on: HL-60
K562 = tested on: K562
HCT-116 = tested on: HCT-116
SK-MEL-28 = tested on: SK-MEL-28
TK-10 = tested on: TK-10
SK-MEL-5 = tested on: SK-MEL-5
SW-620 = tested on: SW-620
NCI-H460 = tested on: NCI-H460
SR = tested on: SR
MDA-MB-231 = tested on: MDA-MB-231
T47D = tested on: T47D
NCI-H226 = tested on: NCI-H226
NCI/ADR-RES = tested on: NCI/ADR-RES
SK-MEL-2 = tested on: SK-MEL-2
Malme-3M = tested on: Malme-3M

Measured: GI50

COc1ccc2occ(CCC(=O)O)c2c1
inactive: UACC-62 > 100 µM | SNB-19 > 100 µM | OVCAR-8 > 100 µM | HCC 2998 > 100 µM | KM-20L2 > 100 µM | HL-60 > 100 µM | K562 > 100 µM | HCT-116 > 100 µM | SK-MEL-28 > 100 µM | TK-10 > 100 µM | SK-MEL-5 > 100 µM | SW-620 > 100 µM | NCI-H460 > 100 µM

O=c1oc2ccc(Cl)cc2c2ccccc12
inactive: UACC-62 71.6 µM | SNB-19 20 µM | SR > 100 µM | OVCAR-8 65 µM | MDA-MB-231 17.4 µM | T47D > 100 µM | HCC 2998 > 100 µM | HL-60 > 100 µM | K562 > 100 µM | HCT-116 76.2 µM | SK-MEL-28 > 100 µM | TK-10 51.6 µM | SK-MEL-5 67.6 µM | SW-620 > 100 µM | NCI-H226 27.5 µM | NCI/ADR-RES 84.1 µM | SK-MEL-2 18.6 µM | Malme-3M > 100 µM | NCI-H460 > 100 µM

CCCCC(=O)Nc1ccc2cc(C(=O)OC)c(Cl)nc2n1
inactive: UACC-62 > 100 µM | SNB-19 16.5 µM | SR > 100 µM | OVCAR-8 > 100 µM | MDA-MB-231 > 100 µM | T47D 7.89 µM | HCC 2998 10.9 µM | HL-60 2.58 µM | K562 > 100 µM | HCT-116 > 93.5 µM | SK-MEL-28 > 76.4 µM | TK-10 > 71.3 µM | SK-MEL-5 > 90.8 µM | SW-620 > 100 µM | NCI-H226 > 100 µM | NCI/ADR-RES > 100 µM | SK-MEL-2 > 100 µM | Malme-3M > 100 µM | NCI-H460 44.2 µM

COc1cc2[nH]c(=O)c3cc(-c4ccccc4)cc4c(Cl)nc(c1OC)c2c43
inactive: UACC-62 14.1 µM | SNB-19 28.1 µM | SR 9.89 µM | OVCAR-8 5.14 µM | MDA-MB-231 3.64 µM | T47D 24.4 µM | HCC 2998 23.6 µM | HL-60 2.17 µM | K562 38.2 µM | HCT-116 3.1 µM | SK-MEL-28 32.1 µM | TK-10 29.6 µM | SK-MEL-5 12.5 µM | SW-620 3.37 µM | NCI-H226 > 70.1 µM | NCI/ADR-RES 7.35 µM | SK-MEL-2 15.1 µM | Malme-3M 6.32 µM | NCI-H460 21 µM

NC(Cc1ccc(N(CCCl)CCCl)cc1)C(=O)NC(CCC(=O)O)C(=O)O (stereo unspecified)
inactive: UACC-62 > 100 µM | SNB-19 > 100 µM | SR 38 µM and 60.4 µM | OVCAR-8 > 100 µM | MDA-MB-231 > 100 µM | T47D > 100 µM | HCC 2998 > 100 µM | HL-60 > 100 µM | K562 > 100 µM | HCT-116 > 100 µM | SK-MEL-28 > 100 µM | TK-10 > 100 µM | SK-MEL-5 > 100 µM | SW-620 > 100 µM | NCI-H226 > 100 µM | NCI/ADR-RES > 100 µM | SK-MEL-2 > 100 µM | Malme-3M > 100 µM | NCI-H460 > 100 µM

CC(C)NC(=O)OCc1c(COC(=O)NC(C)C)n(C)c2c1ccc1ccsc12
inactive: UACC-62 6.9 µM | SNB-19 10.8 µM | SR 2.37 µM | OVCAR-8 9.59 µM | MDA-MB-231 16.7 µM | T47D 15.5 µM | HCC 2998 14.4 µM | HL-60 2.69 µM | K562 8.97 µM | HCT-116 9.84 µM | SK-MEL-28 12.6 µM | TK-10 22.2 µM | SK-MEL-5 10.7 µM | SW-620 5.19 µM | NCI-H226 7.41 µM | NCI/ADR-RES 6.75 µM | SK-MEL-2 12.7 µM | Malme-3M 4.36 µM | NCI-H460 3.24 µM

CCOC(OCC)c1ccc(/C=C/c2cc(OC)c(OC)c(OC)c2)cc1
inactive: UACC-62 16.4 µM | SNB-19 29 µM | OVCAR-8 26.9 µM | KM-20L2 18.7 µM | HL-60 11.7 µM | K562 17.1 µM | HCT-116 17 µM | SK-MEL-28 21 µM | TK-10 33.4 µM | SK-MEL-5 15.2 µM | SW-620 22.7 µM | NCI-H226 30.4 µM | Malme-3M 17.1 µM | NCI-H460 19.1 µM

Cc1cc(C)n(CC(Cn2nc(C)cc2C)=C(/C(Cl)=C(/Cl)Nc2ccc([N+](=O)[O-])cc2)[N+](=O)[O-])n1
inactive: UACC-62 3.9 µM | SNB-19 4.49 µM | SR 2.48 µM | OVCAR-8 3.35 µM | MDA-MB-231 6.05 µM | T47D 3.33 µM | HCC 2998 3.52 µM | HL-60 1.54 µM | K562 1.65 µM | HCT-116 3.7 µM | SK-MEL-28 7.06 µM | TK-10 3.78 µM | SK-MEL-5 2.29 µM | SW-620 2.42 µM | NCI-H226 10.2 µM | NCI/ADR-RES 8.07 µM | SK-MEL-2 3.05 µM | Malme-3M 3.61 µM | NCI-H460 3.33 µM

CCOC(=O)/C(C#N)=C(O)/C(=C\c1ccc(Br)cc1)NC(=O)c1ccccc1
inactive: UACC-62 > 100 µM | SNB-19 > 100 µM | OVCAR-8 > 100 µM | HCC 2998 > 100 µM | KM-20L2 > 100 µM | HL-60 > 100 µM | K562 > 100 µM | HCT-116 16.4 µM | SK-MEL-28 > 100 µM | TK-10 > 100 µM | SK-MEL-5 > 100 µM | SW-620 19.2 µM | NCI-H226 30.4 µM | Malme-3M > 100 µM | NCI-H460 > 100 µM

Nc1ncc(Cc2nn3c(COc4ccc(Cl)cc4)nnc3s2)s1
inactive: UACC-62 > 100 µM | SNB-19 > 100 µM | SR 49.2 µM | OVCAR-8 > 100 µM | MDA-MB-231 > 100 µM | T47D > 100 µM | HCC 2998 > 100 µM | HL-60 > 100 µM | K562 > 100 µM | HCT-116 > 100 µM | SK-MEL-28 > 100 µM | TK-10 45.2 µM | SK-MEL-5 > 100 µM | SW-620 > 100 µM | NCI-H226 > 100 µM | NCI/ADR-RES > 100 µM | SK-MEL-2 > 100 µM | Malme-3M 3.61 µM | NCI-H460 > 100 µM

CC1Cc2c(N)nc(NN)nc2NC1=O (stereo unspecified)
inactive: UACC-62 > 100 µM | SNB-19 > 100 µM | OVCAR-8 > 100 µM | KM-20L2 > 100 µM | HL-60 > 100 µM | K562 > 100 µM | HCT-116 > 100 µM | SK-MEL-28 > 100 µM | TK-10 > 100 µM | SK-MEL-5 > 100 µM | SW-620 > 100 µM | NCI-H226 > 100 µM | Malme-3M > 100 µM | NCI-H460 > 100 µM

CCOP(=O)(OCC)C(F)(F)CC1CCCCC1
inactive: UACC-62 > 10 µM | SNB-19 > 10 µM | SR > 10 µM | OVCAR-8 > 10 µM | MDA-MB-231 > 10 µM | T47D > 10 µM | HCC 2998 > 10 µM | HL-60 > 10 µM | K562 > 10 µM | HCT-116 > 10 µM | SK-MEL-28 > 10 µM | TK-10 > 10 µM | SK-MEL-5 > 10 µM | SW-620 > 10 µM | NCI-H226 > 10 µM | NCI/ADR-RES > 10 µM | SK-MEL-2 > 10 µM | Malme-3M > 10 µM | NCI-H460 > 10 µM

O=S(=O)(O)c1cc(S(=O)(=O)O)c2c(/N=N/c3cccc4ccccc34)c(O)ccc2c1
inactive: UACC-62 > 100 µM | SNB-19 > 100 µM | SR > 100 µM | OVCAR-8 > 100 µM | MDA-MB-231 > 100 µM | T47D > 100 µM | HCC 2998 > 100 µM | HL-60 > 100 µM | K562 > 100 µM | HCT-116 > 100 µM | SK-MEL-28 > 100 µM | TK-10 > 100 µM | SK-MEL-5 > 100 µM | SW-620 > 100 µM | NCI-H226 > 100 µM | NCI/ADR-RES > 100 µM | SK-MEL-2 > 100 µM | Malme-3M > 100 µM | NCI-H460 > 100 µM

O=C(O)C1=NN=C(C(=O)O)NN1
inactive: UACC-62 > 100 µM | SNB-19 > 100 µM | OVCAR-8 > 100 µM | KM-20L2 > 100 µM | HL-60 > 100 µM | K562 72.9 µM | HCT-116 > 100 µM | SK-MEL-28 > 100 µM | TK-10 > 100 µM | SK-MEL-5 > 100 µM | SW-620 38.6 µM | NCI-H226 > 100 µM | SK-MEL-2 > 100 µM | Malme-3M > 100 µM | NCI-H460 79.4 µM

CC[N+](C)(CC)CC(C)(C)C(=O)/C=C/c1ccc(/C=C/C(=O)C(C)(C)C[N+](C)(CC)CC)cc1
inactive: UACC-62 > 100 µM | SNB-19 > 100 µM | OVCAR-8 > 100 µM | HCC 2998 > 100 µM | KM-20L2 > 100 µM | HL-60 > 100 µM | K562 > 100 µM | HCT-116 > 100 µM | SK-MEL-28 > 100 µM | TK-10 > 100 µM | SK-MEL-5 > 100 µM | SW-620 > 100 µM | NCI-H226 > 100 µM | Malme-3M > 100 µM | NCI-H460 > 100 µM

CC(=O)OC(C)[C@@H](NC(=O)[C@@H](CC(C)C)N(C)C(=O)[C@@H]1CCCN1C(=O)C(C)O)C(=O)OCc1ccccc1 (stereo partly specified) (H-[ξLac]P[dNMeL][dThr(3ξ)](Ac)-OBn)
inactive: UACC-62 > 100 µM | SNB-19 > 100 µM | SR > 100 µM | OVCAR-8 > 100 µM | MDA-MB-231 > 100 µM | T47D > 100 µM | HCC 2998 > 100 µM | HL-60 > 100 µM | K562 > 100 µM | HCT-116 > 100 µM | SK-MEL-28 > 100 µM | TK-10 > 100 µM | SK-MEL-5 > 100 µM | SW-620 > 100 µM | NCI-H226 > 100 µM | NCI/ADR-RES > 100 µM | SK-MEL-2 > 100 µM | Malme-3M > 100 µM | NCI-H460 > 100 µM
